# Measured values taken from patent publication US8598203B2 (Teva Pharmaceutical Industries, Ltd., priority 2009, dated 2013).
# Tests used:
# [1] = previous pharmacokinetic studies of laquinimod (time to steady state, oral bioavailability); format: in vivo; details: with loading dose regimen (double the intended dose for the first two days)
# Text: In order to decrease thee time to steady state and potentially decrease time to response, a loading dose regimen described below is used to allow steady state levels to be reached in approximately 6-7 days.
# [2] = tested on: subjects with moderate to severe Crohn's disease (CDAI score of 220-450); assay: Phase IIa clinical trial of oral laquinimod in active moderate to severe Crohn's disease; format: in vivo, human; details: for dependence on steroids: moderate to severe Crohn's disease; for C-Reactive Protein level / clinical remission / clinical response / disease progression and/or disease complication / fecal calprotein level / number of open draining fistulas / symptoms of Crohn's disease: moderate to severe Crohn's disease (CDAI 220-450)
# Method: Overall up to ˜180 Crohn's disease patients are enrolled. […] The capsules were prepared using a blend proportional to the 0.6 mg capsules described in PCT International Application No. PCT/US2007/013721 (WO 2007/146248). The capsules were prepared according to the method described in PCT International Application No. PCT/US2007/013721 (WO 2007/146248), which is hereby incorporated by reference into this application. A loading dose regimen of double the maintenance/intended dose is given during the first two days of study drug treatment. Thereafter, starting on day 3, the daily maintenance/intended dose is administered. Subjects are required to maintain CDAI diary cards for each day of the screening period and, if randomized, on each day of the treatment and follow-up period. The scores obtained from the seven consecutive diaries completed prior to the baseline visit and to each of weeks 1, 2, 4, 6, 8 and 12 contribute to a total CDAI score at each of the time points. Moderate to severe Crohn's disease (CD) subjects as determined by a Crohn's Disease Activity Index (CDAI) score of 220-450 (inclusive). […] Each dose is studied sequentially in a distinct cohort. Scheduled in-clinic visits are conducted at screening, baseline and at weeks 1, 2, 4, 6 and 8. […] Subjects who early-discontinues study drug prior to visit week 8 go to follow-up termination visit within 4 weeks (28 days) of study drug discontinuation. A loading dose regimen of the study drug is given during the first two days of treatment (day 1/baseline and thereafter). The first loading dose of the study is administered at the site. The loading dose is double the intended dose for the first two days and is administered twice daily (BID) with 12 hour interval between dosing. Thereafter, starting on day 3, the dosing regimen consists of the intended dose once daily (QD) (see Table 1): • 1. Day 1 (Baseline): loading dose of the drug (intended dose at 0 hour, at the site and intended dose at 12 hours). Total dose is twice the intended dose. • 2. Day 2: loading dose of the study drug (intended dose at 0 hour and intended dose at 12 hours). Total dose is twice the intended dose. • 3. Day 3: Intended/maintenance dose of the study drug. […] Proportion of subjects in clinical remission (total CDAI score <150) at weeks 4, 6, 8 and 12. • 2. Proportion of subjects who respond to treatment (decrease from baseline of at least 100 points in CDAI score ore remission) at week 4, 6, 8 and 12. • 3. Time to remission. • 4. Time to response. • 5. C-Reactive Protein (CRP) change from baseline at weeks 2, 4, 6, 8 and 12. • 6. Fecal calprotectin change from baseline to weeks 2, 4, 6, 8 and 12. • 7. Proportion of subjects with a decrease from baseline of at least 50% in the number of open draining fistulas. Safety/Tolerability • 1. Adverse events (AEs). • 2. Clinical laboratory values. • 3. Vital signs. • 4. ECG. • 5. Proportion of subjects who prematurely discontinue treatment. • 6. Proportion of subjects who prematurely discontinue treatment due to AEs. • 7. Time to premature treatment discontinuation. • 8. Time to premature treatment discontinuation due to AEs. Determination of the Highest Tolerable Dose
# [3] = background statement; cited from earlier work
smiles,measurement,setting,value
CCN(C(=O)c1c(O)c2c(Cl)cccc2n(C)c1=O)c1ccccc1 [laquinimod],time to reach steady state levels,[1],6 to 7 days
same,dependence on steroids,[2]; 0.5 mg/day oral,lowers
same,C-Reactive Protein level,[2]; 0.5 mg/day oral,lowers
same,clinical remission,[2]; 0.5 mg/day oral,induces and/or maintains
same,clinical response,[2]; 0.5 mg/day oral,induces
same,disease progression and/or disease complication,[2]; 0.5 mg/day oral,inhibits
same,fecal calprotein level,[2]; 0.5 mg/day oral,lowers
same,number of open draining fistulas,[2]; 0.5 mg/day oral,reduces
same,symptoms of Crohn's disease,[2]; 0.5 mg/day oral,reduces
same,dependence on steroids,[2]; 1.0 mg/day oral,lowers
same,C-Reactive Protein level,[2]; 1.0 mg/day oral,lowers
same,clinical remission,[2]; 1.0 mg/day oral,induces and/or maintains
same,clinical response,[2]; 1.0 mg/day oral,induces
same,disease progression and/or disease complication,[2]; 1.0 mg/day oral,inhibits
same,fecal calprotein level,[2]; 1.0 mg/day oral,lowers
same,number of open draining fistulas,[2]; 1.0 mg/day oral,reduces
same,symptoms of Crohn's disease,[2]; 1.0 mg/day oral,reduces
same,dependence on steroids,[2]; 1.5 mg/day oral,lowers
same,C-Reactive Protein level,[2]; 1.5 mg/day oral,lowers
same,clinical remission,[2]; 1.5 mg/day oral,induces and/or maintains
same,clinical response,[2]; 1.5 mg/day oral,induces
same,disease progression and/or disease complication,[2]; 1.5 mg/day oral,inhibits
same,fecal calprotein level,[2]; 1.5 mg/day oral,lowers
same,number of open draining fistulas,[2]; 1.5 mg/day oral,reduces
same,symptoms of Crohn's disease,[2]; 1.5 mg/day oral,reduces
same,dependence on steroids,[2]; 2.0 mg/day oral,lowers
same,C-Reactive Protein level,[2]; 2.0 mg/day oral,lowers
same,clinical remission,[2]; 2.0 mg/day oral,induces and/or maintains
same,clinical response,[2]; 2.0 mg/day oral,induces
same,disease progression and/or disease complication,[2]; 2.0 mg/day oral,inhibits
same,fecal calprotein level,[2]; 2.0 mg/day oral,lowers
same,number of open draining fistulas,[2]; 2.0 mg/day oral,reduces
same,symptoms of Crohn's disease,[2]; 2.0 mg/day oral,reduces
same,oral bioavailability,[3],high oral bioavailability
